Results taken from US9347934B2, “Assays for identifying compounds that modulate bitter taste” (CHROMOCELL CORPORATION, priority 2011, dated 2016).

Assays:
Type in all cases: cell-based
[1] = target: T1, TAS2R47 (Homo sapiens, UniProt P59541); experiment: Calcium fluorescence functional assay, TAS2R47 cell line; conditions: 20 mM tastant; cell line expressing human TAS2R47 and mouse Gα15
T1 construct: expressed in transfected cells
T1 sequence (P59541 1-319): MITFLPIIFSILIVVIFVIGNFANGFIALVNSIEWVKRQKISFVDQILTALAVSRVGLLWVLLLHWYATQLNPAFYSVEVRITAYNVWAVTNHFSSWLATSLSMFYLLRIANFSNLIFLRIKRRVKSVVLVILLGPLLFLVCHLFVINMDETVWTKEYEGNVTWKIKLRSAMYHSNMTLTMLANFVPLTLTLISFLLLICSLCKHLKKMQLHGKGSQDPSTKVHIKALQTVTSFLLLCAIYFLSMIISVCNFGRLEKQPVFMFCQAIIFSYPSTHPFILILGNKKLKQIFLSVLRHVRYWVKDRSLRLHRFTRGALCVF
Protocol: (§1) Accordingly, each cell line of the panel expressed a human bitter taste receptor and mouse Gα15 signaling protein.
(§2) Probenecid was not included in the load solution.
(§3) After dye loading, cell plates were placed in a fluorescent plate reader (e.g., FDSS6000 (Hamamatsu, Japan)) and receptor stimulation was measured by adding 50 ul of 3× concentrated ligand/agonist stock. Fluorescence was monitored continuously for 10 s before agonist addition and for 100-250 s after stimulation with agonist.
(§4) Receptor Activation is defined as follows: % Activation=[((Maximum signal fluorescence−Minimum signal fluorescence)−(Maximum control fluorescence−Minimum control fluorescence))/(Maximum buffer fluorescence−Minimum buffer fluorescence)]*100 Functional Response=[(Maximum signal fluorescence−Minimum signal fluorescence)−(Maximum control fluorescence−Minimum control fluorescence)] • Signal Fluorescence: refers to the change in fluorescence seen with addition of ligand • Control fluorescence: refers to the change in fluorescence seen with addition of buffer (negative control) • Calcium signals from ligand and control were normalized to the basal fluorescence of the cells prior to the stimulation.
(§5) A concentration analysis was performed and EC50 values were calculated by nonlinear regression using the formula: Y=Bottom+(Top-Bottom)/(1+10^((Log EC50-X)*Hill Slope)), X=log of dose or concentration, Y=Response (increasing as X increases), Top=maximum signal, Bottom=minimum signal.

[2] = target: T2, TAS2R8 (Homo sapiens, UniProt Q9NYW2); experiment: Calcium fluorescence functional assay, TAS2R8 cell line; conditions: 20 mM tastant; cell line expressing human TAS2R8 and mouse Gα15
T2 construct: expressed in transfected cells
T2 sequence (Q9NYW2 1-309): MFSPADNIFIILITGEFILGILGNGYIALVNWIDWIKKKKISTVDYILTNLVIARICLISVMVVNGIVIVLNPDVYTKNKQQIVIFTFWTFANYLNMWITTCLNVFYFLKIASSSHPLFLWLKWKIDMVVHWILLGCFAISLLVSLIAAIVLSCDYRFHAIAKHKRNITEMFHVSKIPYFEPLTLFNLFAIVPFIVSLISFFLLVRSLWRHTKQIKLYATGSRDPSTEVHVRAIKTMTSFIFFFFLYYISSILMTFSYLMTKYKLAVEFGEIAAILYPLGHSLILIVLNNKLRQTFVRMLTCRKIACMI
Protocol: as §1, §2, §3, §4, §5

[3] = target: T3, TAS2R41 (Homo sapiens, UniProt P59536); experiment: Calcium fluorescence functional assay, TAS2R41 cell line; conditions: 20 mM tastant; cell line expressing human TAS2R41 and mouse Gα15
T3 construct: expressed in transfected cells
T3 sequence (P59536 1-307): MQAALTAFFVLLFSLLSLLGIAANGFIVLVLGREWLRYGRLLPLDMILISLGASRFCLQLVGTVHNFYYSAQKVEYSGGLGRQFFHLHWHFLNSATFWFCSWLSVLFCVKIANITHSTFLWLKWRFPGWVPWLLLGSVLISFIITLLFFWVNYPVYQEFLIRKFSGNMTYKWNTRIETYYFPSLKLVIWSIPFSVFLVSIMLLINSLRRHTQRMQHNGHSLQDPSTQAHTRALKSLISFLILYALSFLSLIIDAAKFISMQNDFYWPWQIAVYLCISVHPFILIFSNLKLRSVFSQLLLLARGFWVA
Protocol: as §1, §2, §3, §4, §5

[4] = target: T4, TAS2R5 (Homo sapiens, UniProt Q9NYW4); experiment: Calcium fluorescence functional assay, TAS2R5 cell line; conditions: 20 mM tastant; cell line expressing human TAS2R5 and mouse Gα15
T4 construct: expressed in transfected cells
T4 sequence (Q9NYW4 1-299): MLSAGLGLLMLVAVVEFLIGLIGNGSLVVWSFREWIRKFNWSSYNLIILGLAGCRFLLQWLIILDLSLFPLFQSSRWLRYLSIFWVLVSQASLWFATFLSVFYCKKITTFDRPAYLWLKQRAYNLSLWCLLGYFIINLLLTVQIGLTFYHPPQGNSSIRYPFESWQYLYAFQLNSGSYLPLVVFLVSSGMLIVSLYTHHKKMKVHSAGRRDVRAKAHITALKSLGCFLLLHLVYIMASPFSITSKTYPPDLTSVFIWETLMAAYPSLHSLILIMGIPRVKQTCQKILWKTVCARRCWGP
Protocol: as §1, §2, §3, §4, §5

[5] = target: T5, TAS2R38 (Homo sapiens, UniProt P59533); experiment: Calcium fluorescence functional assay, TAS2R38 cell line; conditions: 20 mM tastant; cell line expressing human TAS2R38 and mouse Gα15
T5 construct: expressed in transfected cells
T5 sequence (P59533 1-333): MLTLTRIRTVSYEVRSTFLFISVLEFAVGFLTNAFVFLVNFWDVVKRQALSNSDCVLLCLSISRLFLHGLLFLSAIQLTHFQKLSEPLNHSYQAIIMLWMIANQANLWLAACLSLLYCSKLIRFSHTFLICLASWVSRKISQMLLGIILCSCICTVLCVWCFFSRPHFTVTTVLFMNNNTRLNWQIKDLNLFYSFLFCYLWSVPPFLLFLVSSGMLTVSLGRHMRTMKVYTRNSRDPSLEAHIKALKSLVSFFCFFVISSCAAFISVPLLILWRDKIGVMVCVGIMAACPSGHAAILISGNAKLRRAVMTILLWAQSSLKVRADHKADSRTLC
Protocol: as §1, §2, §3, §4, §5

[6] = target: T6, TAS2R60 (Homo sapiens, UniProt P59551); experiment: Calcium fluorescence functional assay, TAS2R60 cell line; conditions: for TAS2R60 bitter taste receptor activity (changes in intracellular calcium): 20 mM tastant, cell line expressing human TAS2R60 and mouse Gα15
T6 construct: expressed in transfected cells
T6 sequence (P59551 1-318): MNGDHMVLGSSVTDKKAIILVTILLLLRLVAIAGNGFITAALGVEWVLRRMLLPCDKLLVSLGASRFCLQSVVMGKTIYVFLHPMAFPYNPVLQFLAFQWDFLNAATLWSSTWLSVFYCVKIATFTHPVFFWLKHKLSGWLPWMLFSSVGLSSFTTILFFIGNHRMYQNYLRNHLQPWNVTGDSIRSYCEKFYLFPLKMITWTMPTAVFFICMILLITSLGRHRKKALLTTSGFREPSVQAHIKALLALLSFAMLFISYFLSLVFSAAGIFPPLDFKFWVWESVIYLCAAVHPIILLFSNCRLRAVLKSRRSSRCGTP
Protocol: as §1, §2, §3, §4, §5

[7] = target: T7, TAS2R40 (Homo sapiens, UniProt P59535); experiment: Calcium fluorescence functional assay, TAS2R40 cell line; conditions: 20 mM tastant; cell line expressing human TAS2R40 and mouse Gα15
T7 construct: expressed in transfected cells
Protocol: as §1, §2, §3, §4, §5

T7 sequence (P59535 whole entry): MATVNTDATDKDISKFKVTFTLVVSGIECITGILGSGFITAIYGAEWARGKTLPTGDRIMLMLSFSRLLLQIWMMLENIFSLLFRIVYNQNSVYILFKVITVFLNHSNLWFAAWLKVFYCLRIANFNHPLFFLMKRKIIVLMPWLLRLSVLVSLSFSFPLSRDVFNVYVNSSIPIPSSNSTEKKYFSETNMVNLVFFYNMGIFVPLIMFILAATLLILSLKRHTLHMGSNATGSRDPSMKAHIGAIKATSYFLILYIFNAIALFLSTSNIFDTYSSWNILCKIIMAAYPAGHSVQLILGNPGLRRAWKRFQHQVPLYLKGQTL

| Compound | TAS2R47 bitter taste receptor activity (changes in intracellular calcium) [1] | TAS2R8 bitter taste receptor activity (changes in intracellular calcium) [2] | TAS2R41 bitter taste receptor activity (changes in intracellular calcium) [3] | TAS2R5 bitter taste receptor activity (changes in intracellular calcium) [4] | TAS2R38 bitter taste receptor activity (changes in intracellular calcium) [5] | TAS2R60 bitter taste receptor activity (changes in intracellular calcium) [6] | TAS2R40 bitter taste receptor activity (changes in intracellular calcium) [7] | EC50 ([6]; increasing concentrations of KCl, TAS2R60 cell line (FIG. 3), read-out: EC50 value, activation of TAS2R60) |
| --- | --- | --- | --- | --- | --- | --- | --- | --- |
| CC1=CC(=O)NS(=O)(=O)O1 [Acesulfame K] | did not induce | did not induce | did not induce | did not induce | did not induce | did not induce | did not induce | – |
| [Cl-].[K+] [KCl, potassium chloride] | did not induce | did not induce | did not induce | did not induce | did not induce | induced | did not induce | 5 to 15 mM |
| CC(O)C(=O)[O-].[K+] (stereo not shown) [Potassium lactate, potassium lactate] | did not induce | did not induce | did not induce | did not induce | did not induce | induced | did not induce | – |
